The record followed here is US20250257051A1, “SUBSTITUTED PYRIMIDINE COMPOUNDS AS TYK2 INHIBITORS” (1910 Genetics Inc., priority 2022, published 2025).

Counter-ions that a name gives are not always drawn.

As a reminder, the Kd is the constant that tells how readily two partners part at equilibrium.

Chain of human TYK2 (JH2domain-pseudokinase) (P29597 556-888): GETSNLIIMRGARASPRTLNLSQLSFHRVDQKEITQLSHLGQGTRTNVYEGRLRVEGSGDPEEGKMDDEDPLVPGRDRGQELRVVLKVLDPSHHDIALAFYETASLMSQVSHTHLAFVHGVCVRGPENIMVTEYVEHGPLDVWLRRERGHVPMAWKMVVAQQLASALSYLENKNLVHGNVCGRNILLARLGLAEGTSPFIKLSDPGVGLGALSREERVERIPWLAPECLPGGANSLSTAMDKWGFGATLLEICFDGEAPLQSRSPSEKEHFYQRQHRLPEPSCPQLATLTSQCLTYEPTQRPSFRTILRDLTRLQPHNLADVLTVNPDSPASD

In this assay the target is human TYK2 (JH2domain-pseudokinase) (Homo sapiens (Human), UniProt P29597). Nature of the assay: TYK2 JH2 Domain Binding Assay (KINOMEscan competition binding). To be noted: KINOMEscan; 11-point 3-fold dilution, top concentration 30,000 nM; Kd measurements in duplicate; read-out: TYK JH2 (Kd). On the procedure:
Binding constants for compounds disclosed herein may be determined by the KINOMEscan® assay developed by DiscoveRx. KINOMEscan® is based on a competition binding assay that quantitatively measures the ability of a compound to compete with an immobilized, active-site directed ligand. The assay is performed by combining three components: DNA-tagged kinase; immobilized ligand; and a test compound. The ability of the test compound to compete with the immobilized ligand is measure via quantitative PCR of the DNA tag.
Binding constants for compounds disclosed herein against the JH2 domain are determined by the following protocol for a KINOMEscan® assay (DiscoveRx). A fusion protein of a partial length construct of human TYK2 (JH2domain-pseudokinase) (amino acids G556 to D888 based on reference sequence NP 003322.3) and the DNA binding domain of NFkB is expressed in transiently transfected HEK293 cells. From these HEK 293 cells, extracts are prepared in M-PER extraction buffer (Pierce) in the presence of Protease Inhibitor Cocktail Complete (Roche) and Phosphatase Inhibitor Cocktail Set II (Merck) per manufacturers' instructions. The TYK2 (JH2domain-pseudokinase) fusion protein is labeled with a chimeric double-stranded DNA tag containing the NFkB binding site (5′-GGGAATTCCC-3′) fused to an amplicon for qPCR readout, which is added directly to the expression extract (the final concentration of DNA-tag in the binding reaction is 0.1 nM).
Streptavidin-coated magnetic beads (Dynal M280) are treated with a biotinylated small molecule ligand for 30 minutes at room temperature to generate affinity resins for the binding assays. The liganded beads are blocked with excess biotin and washed with blocking buffer (SeaBlock (Pierce), 1% BSA, 0.05% Tween 20, 1 mM DTT) to remove unbound ligand and to reduce nonspecific binding.
Extracts are used directly in binding assays without any enzyme purification steps at a >10,000-fold overall stock dilution (final DNA tagged enzyme concentration<0.1 nM). Extracts are loaded with DNA-tag and diluted into the binding reaction in a two-step process. First extracts are diluted 1:100 in 1× binding buffer (PBS/0.05% Tween 20/10 mM DTT/0.1% BSA/[…] sonicated salmon sperm DNA) containing 10 nM DNA-tag. This dilution is allowed to equilibrate at room temperature for 15 minutes and then subsequently diluted 1:100 in 1× binding buffer. Test compounds are prepared as 111× stocks in 100% DMSO. Kds are determined using an 11-point 3-fold compound dilution series with three DMSO control points. All compounds for Kd measurements are distributed by acoustic transfer (non-contact dispensing) in 100% DMSO. The compounds are then diluted directly into the assays such that the final concentration of DMSO is 0.9%. All reactions performed in polypropylene 384-well plates. Each is a final volume of 0.02 mL. Assays are incubated with shaking for 1 hour at room temperature. Then the beads are pelleted and washed with wash buffer (lx PBS, 0.05% Tween 20) to remove displaced kinase and test compound. The washed beads are re-suspended in elution buffer (lx PBS, 0.05% Tween 20, 0.5 μM non-biotinylated affinity ligand) and incubated at room temperature with shaking for 30 minutes. The kinase concentration in the eluates is measured by qPCR. qPCR reactions are assembled by adding 2.5 μL of kinase eluate to 7.5 μL of qPCR master mix containing 0.15 μM amplicon primers and 0.15 μM amplicon probe. The qPCR protocol consists of a 10-minute hot start at 95° C., followed by 35 cycles of 95° C. for 15 seconds, 60° C. for 1 minute.
Test compounds are prepared as 111× stocks in 100% DMSO. Kds are determined using an 11-point 3-fold compound dilution series with three DMSO control points. All compounds for Kd measurements are distributed by acoustic transfer (non-contact dispensing) in 100% DMSO. The compounds are then diluted directly into the assays such that the final concentration of DMSO is 0.9%. […]
Take `CCOC(=O)C1CCN(c2ncc(C(N)=O)c(Nc3cccc(-c4ncc(F)cn4)c3OC)n2)CC1` [Compound 39, Ethyl 1-(5-carbamoyl-4-((3-(5-fluoropyrimidin-2-yl)-2-methoxyphenyl)amino)pyrimidin-2-yl)piperidine-4-carboxylate]: the Kd came to 0.82 nM.
Next, `CCOC(=O)C1CCN(c2ncc(C(=O)NC)c(Nc3ccccc3OC)n2)CC1` [Compound 34, Ethyl 1-(4-((2-methoxyphenyl)amino)-5-(methylcarbamoyl)pyrimidin-2-yl)piperidine-4-carboxylate]: 760 nM; `COc1ccccc1Nc1nc(N2CCNCC2C)ncc1C(N)=O` (stereo not drawn) [Compound 42, 4-((2-methoxyphenyl)amino)-2-(2-methylpiperazin-1-yl)pyrimidine-5-carboxamide hydrochloride]: 3300 nM; `CCOC(=O)C1CCN(c2ncc(C(=O)NC)c(Nc3cccc(-c4ncc(F)cn4)c3OC)n2)CC1` [Compound 28, Ethyl 1-(4-((3-(5-fluoropyrimidin-2-yl)-2-methoxyphenyl)amino)-5-(methylcarbamoyl)pyrimidin-2-yl)piperidine-4-carboxylate]: 2.3 nM.
As to `CNC(=O)C1CN(c2ncc(C(N)=O)c(Nc3ccc(C4CC4)nc3)n2)C1` [Compound 50, 4-((6-cyclopropylpyridin-3-yl)amino)-2-(3-(methylcarbamoyl)azetidin-1-yl)pyrimidine-5-carboxamide], the Kd is 110 nM.
Next, `CNC(=O)c1cnc(N2CCN(C(C)=O)CC2C)nc1Nc1ccccc1S(C)(=O)=O` (stereo not drawn) [Compound 76, 2-(4-acetyl-2-methylpiperazin-1-yl)-N-methyl-4-((2-(methylsulfonyl)phenyl)amino)pyrimidine-5-carboxamide]: 210 nM.
Next, `CNC(=O)c1cnc(N2CCCNCC2)nc1Nc1cccc(-c2ncc(F)cn2)c1OC` [Compound 74, 2-(1,4-diazepan-1-yl)-4-((3-(5-fluoropyrimidin-2-yl)-2-methoxyphenyl)amino)-N-methylpyrimidine-5-carboxamide Hydrochloride]: 800 nM; `CC1CNCCN1c1ncc(C(N)=O)c(Nc2ccc(C3CC3)nc2)n1` (stereo not drawn) [Compound 12, 4-((6-cyclopropylpyridin-3-yl)amino)-2-(2-methylpiperazin-1-yl)pyrimidine-5-carboxamide]: 800 nM.
Next, `NC(=O)c1cnc(N2CCCC2)nc1Nc1ccc(C2CC2)nc1` [Compound 2, 4-((6-cyclopropylpyridin-3-yl)amino)-2-(pyrrolidin-1-yl)pyrimidine-5-carboxamide]: 12 nM; `CNC(=O)c1cnc(N2CCN(C(C)=O)CC2C)nc1Nc1ccccc1OC` (stereo not drawn) [Compound 23, 2-(4-acetyl-2-methylpiperazin-1-yl)-4-((2-methoxyphenyl)amino)-N-methylpyrimidine-5-carboxamide]: 1600 nM; `CNC(=O)c1cnc(N2CC[C@H](C(=O)NC)C2)nc1Nc1cccc(-c2ncc(F)cn2)c1OC` [Compound 7, (S)-4-((3-(5-fluoropyrimidin-2-yl)-2-methoxyphenyl)amino)-N-methyl-2-(3-(methylcarbamoyl)pyrrolidin-1-yl)pyrimidine-5-carboxamide]: 3.9 nM.
For `CNC(=O)c1cnc(N2CCC(C(=O)O)CC2)nc1Nc1ccc(C2CC2)nc1` [Compound 19, 1-(4-((6-cyclopropylpyridin-3-yl)amino)-5-(methylcarbamoyl)pyrimidin-2-yl)piperidine-4-carboxylic acid], the Kd was found to be 8200 nM.
Next, `CC1CN(C(=O)OC(C)(C)C)CCN1c1ncc(C(N)=O)c(Nc2ccccc2S(C)(=O)=O)n1` (racemic) [Compound 55, Tert-Butyl 4-(5-carbamoyl-4-((2-(methylsulfonyl)phenyl)amino)pyrimidin-2-yl)-3-methylpiperazine-1-carboxylate]: 180 nM; `CNC(=O)[C@@H]1CCN(c2ncc(C(N)=O)c(Nc3ccc(C4CC4)nc3)n2)C1` [Compound 4, (R)-4-((6-cyclopropylpyridin-3-yl)amino)-2-(3-(methylcarbamoyl)pyrrolidin-1-yl)pyrimidine-5-carboxamide]: 38 nM; `CC1CNCCN1c1ncc(C(N)=O)c(Nc2ccccc2S(C)(=O)=O)n1` (racemic) [Compound 63, 2-(2-methylpiperazin-1-yl)-4-((2-(methylsulfonyl)phenyl)amino)pyrimidine-5-carboxamide hydrochloride]: 1400 nM.
Next, `CNC(=O)c1cnc(N2CCN(C(C)=O)CC2C)nc1Nc1cccc(-c2ncc(F)cn2)c1OC` (stereo not drawn) [Compound 61, 2-(4-acetyl-2-methylpiperazin-1-yl)-4-((3-(5-fluoropyrimidin-2-yl)-2-methoxyphenyl)amino)-N-methylpyrimidine-5-carboxamide]: 15 nM.
Next, `COc1ccccc1Nc1nc(N2CCN(C(=O)OC(C)(C)C)CC2C)ncc1C(N)=O` (stereo not drawn) [Compound 43, Tert-Butyl 4-(5-carbamoyl-4-((2-methoxyphenyl)amino)pyrimidin-2-yl)-3-methylpiperazine-1-carboxylate]: 7500 nM; `CNC(=O)c1cnc(N2CCC(C(=O)O)CC2)nc1Nc1ccccc1S(C)(=O)=O` [Compound 68, 1-(5-(methylcarbamoyl)-4-((2-(methylsulfonyl)phenyl)amino)pyrimidin-2-yl)piperidine-4-carboxylic Acid]: 160 nM; `CNC(=O)c1cnc(N2CCCN(C(=O)OC(C)(C)C)CC2)nc1Nc1ccccc1S(C)(=O)=O` [Compound 66, Tert-Butyl 4-(S-(methylcarbamoyl)-4-((2-(methylsulfonyl)phenyl)amino)pyrimidin-2-yl)-1,4-diazepane-1-carboxylate]: 6300 nM.
Consider `CC1CN(C(=O)OC(C)(C)C)CCN1c1ncc(C(N)=O)c(Nc2ccc(C3CC3)nc2)n1` (stereo not drawn) [Compound 13, Tert-Butyl 4-(S-carbamoyl-4-((6-cyclopropylpyridin-3-yl)amino)pyrimidin-2-yl)-3-methylpiperazine-1-carboxylate], for which the Kd is 1000 nM.
Next, `CNC(=O)c1cnc(N2CCNCC2C)nc1Nc1cccc(-c2ncc(F)cn2)c1OC` (stereo not drawn) [Compound 25, 4-((3-(5-fluoropyrimidin-2-yl)-2-methoxyphenyl)amino)-N-methyl-2-(2-methylpiperazin-1-yl)pyrimidine-5-carboxamide Hydrochloride]: 180 nM; `CCOC(=O)C1CCN(c2ncc(C(=O)NC)c(Nc3ccccc3S(C)(=O)=O)n2)CC1` [Compound 17, Ethyl 1-(5-(methylcarbamoyl)-4-((2-(methylsulfonyl)phenyl)amino)pyrimidin-2-yl)piperidine-4-carboxylate]: 21 nM.
Regarding `COc1ccccc1Nc1nc(N2CCC(C(=O)O)CC2)ncc1C(N)=O` [Compound 44, 1-(5-carbamoyl-4-((2-methoxyphenyl)amino)pyrimidin-2-yl)piperidine-4-carboxylic Acid], the Kd was determined as 2400 nM.
Next, `CNC(=O)c1cnc(N2CCN(C(=O)OC(C)(C)C)CC2C)nc1Nc1ccc(C2CC2)nc1` (stereo not drawn) [Compound 15, Tert-Butyl 4-(4-((6-cyclopropylpyridin-3-yl)amino)-5-(methylcarbamoyl)pyrimidin-2-yl)-3-methylpiperazine-1-carboxylate]: 42000 nM.
